Measurements: PubChem BioAssay (NCI)
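Step 1: Grow cells in 96-well plates. Step 2: Expose to compound for 48 hours at 5 concentrations. Step 3: Interpolate endpoints linearly; if unreached, use highest concentration. GI50 marks 50% less growth. TGI: concentration producing complete growth inhibition.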

Assays:
Assay in all cases: NCI-60 cell line screen, 48 h
[1] = test system: ACHN renal
[2] = test system: MOLT-4 leukemia
[3] = test system: NCI-H23 lung
[4] = test system: SW-620 colon
[5] = test system: HCT-15 colon
[6] = test system: U251 CNS
[7] = test system: OVCAR-8 ovarian
[8] = test system: NCI/ADR-RES ovarian

| Compound | GI50 [1] | TGI [1] | GI50 [2] | TGI [2] | GI50 [3] | TGI [3] | GI50 [4] | TGI [4] | GI50 [5] | TGI [5] | GI50 [6] | TGI [6] | GI50 [7] | TGI [7] | GI50 [8] | TGI [8] |
| --- | --- | --- | --- | --- | --- | --- | --- | --- | --- | --- | --- | --- | --- | --- | --- | --- |
| CCCCCCCCOC(=O)c1c(C)[nH]c(/C=C2\N=C(c3ccc[nH]3)C=C2OC)c1C | 0.0322 µM | 1.77 µM | < 0.0201 µM | 18.5 µM | 0.0965 µM | 2.2 µM | < 0.0181 µM | 1.56 µM | < 0.0163 µM | 3.15 µM | 0.0258 µM | 1.65 µM | 0.0459 µM | 13.8 µM | 0.0367 µM | 9.86 µM |
| CCCCCN(CCCCC)CC(O)c1cc(Cl)ccc1OC (centres undefined) | 10.5 µM | 24.9 µM | 6.94 µM | 28.7 µM | 5.79 µM | 20.9 µM | 4.66 µM | 18.2 µM | 6.32 µM | 21.5 µM | 10.7 µM | 25.5 µM | 11.4 µM | 25.7 µM | 9.26 µM | 25.9 µM |
| CC(C)c1nc(N(C)S(C)(=O)=O)nc(-c2ccc(F)cc2)c1/C=C/[C@@H](O)C[C@@H](O)CC(=O)O | 34.2 µM | > 100 µM | > 100 µM | > 100 µM | > 100 µM | > 100 µM | > 100 µM | > 100 µM | 57.4 µM | > 100 µM | 18.9 µM | > 100 µM | > 85.4 µM | > 100 µM | 48.6 µM | > 100 µM |
| CN1CCN(CCOc2ccc(-c3cnc4c(-c5cccc(F)c5)cnn4c3)cc2)CC1 | 1.66 µM | 3.02 µM | 2.15 µM | 4.82 µM | 1.87 µM | 3.72 µM | 1.81 µM | 3.4 µM | 1.52 µM | 2.92 µM | 1.64 µM | 3.57 µM | 2.45 µM | 7.12 µM | 2.47 µM | 6.14 µM |
| CCC(C)Oc1nc2c(c(=O)n(C)c(=O)n2C)n1C (centres undefined) | > 100 µM | > 100 µM | > 100 µM | > 100 µM | > 100 µM | > 100 µM | > 100 µM | > 100 µM | > 100 µM | > 100 µM | > 100 µM | > 100 µM | > 100 µM | > 100 µM | > 100 µM | > 100 µM |
| O=C1C2=C(C(=O)c3cnccc31)C1C=CC2CC1 (centres undefined) |  |  |  |  | 1.82 µM | 4.02 µM | 1.85 µM | 3.44 µM | 2.28 µM | 4.94 µM | 1.76 µM | 3.19 µM | 0.715 µM | 2.09 µM | 1.51 µM | 3.5 µM |
| NC(=O)c1cc(N(CCO)CCO)c([N+](=O)[O-])cc1[N+](=O)[O-] |  | > 100 µM |  | > 100 µM |  | > 100 µM |  | > 100 µM |  | > 100 µM |  | > 100 µM |  |  |  | > 100 µM |
| CSc1ncc(Br)c(Sc2nc(N)nc3nc[nH]c23)n1 | 4.5 µM | 43.6 µM |  |  | 3.74 µM | > 100 µM | 4.46 µM | 24 µM | 3.18 µM | 50.8 µM | 10.3 µM | 57 µM | 3.78 µM | > 100 µM | 3.64 µM | > 100 µM |
| COc1ccc(Nc2nc3ccccc3c3occc23)cc1 | 5.35 µM | 13.7 µM |  |  | 5.72 µM | 12.4 µM | 4.06 µM | 11 µM | 2.95 µM | 10.7 µM | 5.13 µM | 11.7 µM | 8.51 µM | 22.7 µM | 9.32 µM | 18.7 µM |
| O=c1cccccc1NCCCCCCCNc1cccccc1=O |  | > 100 µM |  | 53.4 µM |  | > 100 µM |  | > 100 µM |  | > 100 µM |  |  |  | > 100 µM |  |  |
| CCc1ccccc1NC(=O)/C=C/c1ccccc1 |  | > 100 µM |  | > 100 µM |  | > 100 µM |  | > 100 µM |  | > 100 µM |  | > 100 µM |  | > 100 µM |  |  |
| COc1ccc2c(c1OC)-c1c(c3ccc([N+](=O)[O-])cc3c(=O)n1CCCBr)C2=O |  |  | 18.9 µM | 52.7 µM |  |  | 5.59 µM | > 100 µM |  |  |  |  | > 100 µM | > 100 µM | 26 µM | 98.9 µM |
| O=[N+]([O-])c1cccc(-c2nc(-c3ccccc3)c(-c3ccccc3)[nH]2)c1 |  |  |  | > 100 µM |  | > 100 µM |  | > 100 µM |  |  |  | > 100 µM |  | > 100 µM |  | > 100 µM |
| Cc1cc(Nc2nc(C(=O)Nc3ccccc3)nc3ccccc23)n[nH]1 | 2.87 µM | > 25 µM | 9.75 µM | > 25 µM |  |  | 9.7 µM | > 25 µM | 1.39 µM | > 25 µM | 5.71 µM | > 25 µM | 14.5 µM | > 25 µM | 0.916 µM | > 25 µM |
| CCCn1cnc2c(SCC(=O)O)nc(N)nc21 |  | > 100 µM |  |  |  | > 100 µM |  | > 100 µM |  | > 100 µM |  | > 100 µM |  | > 100 µM |  | > 100 µM |
| O=C(Nc1ccc(F)cc1F)c1cc(Cl)ccc1O | 2.09 µM | 7.68 µM |  |  | 1.6 µM | 8.27 µM | 2.61 µM | 18.7 µM | 1.54 µM | 18 µM | 1.38 µM | 16 µM | 2.38 µM | 13.3 µM | 2.52 µM | 13.3 µM |
